Assay [1] concerns tumor-infiltrating immune cells. Nature of the assay: FACS analysis of tumor-infiltrating immune cells in CT26 tumors. Format: in vivo, mouse. The conditions noted are these: tumors isolated day 22. On the procedure: (§1) Tumor implantation and dosing. CT26 mouse colon carcinoma cells (ATCC CRL-2638) were expanded in vitro and 1×10^5 cells/mouse were inoculated with 50% Matrigel into the subcutaneous flank region of 6-8 week old female BABL/C mice (Taconic). Mice were randomized once tumors were palpable (>200 mm^3) and dosing was started on the same day. […] Tumors were measured and body weight recorded every 2-3 days.
Isolation and analysis of tumor-infiltrating cells. Tumors were chopped into small pieces, digested with 3 mg/mL collagenase A and 100 μg/mL DNase I at 37° C. for 30 mins, followed by the addition of FBS. The digested tumor mass was filtered using […] filters, spun down and washed with PBS Immune cells were visualized and quantifed by FACS on the BD FACSCanto™ II flow cytometry analyzer (BD Bioscience).
The observed efficacy pictured in FIG. 11 was accompanied by changes in the immune infiltrate present in the tumors. Tumors were isolated from mice upon termination of the study (day 22), digested and stained for immune markers allowing for quantification of immune cell populations by FACS. […] Consistent with the reduced efficacy observed in the αPD1 group, we found increased proliferating Treg cells in this group along with decreased proliferating cytotoxic CD8 cells, especially when compared to the combination group (FIG. 11). This effect was also clear if groups treated with the EZH2 inhibitor were analyzed together, and against groups not treated with the EZH2 inhibitor (FIG. 6).
On the technique in general: A flow cytometer gives signals particle by particle.

The subject of assay [2] is CT26 mouse colon carcinoma cells. Nature of the assay: CT26 allograft transplantation tumor model. Type of assay: in vivo. The conditions noted are these: BALB/c mice, 21-day treatment; Inhibitor 1 200 mg/kg s.c. BID, PD-1 antibody 200 μg/mouse IP every 3-4 days; FIG. 10. How it is done:
as §1
(§2) We first evaluated whether treatment treatment of CT26 cancer cells would be sensitive to EZH2 ihibition. Protocols using CT26 cancer cells as a model for testing immunotherapy protocols and in studies on host immune response are known.
CD8 T cells are known to be major effectors of anti-tumor efficacy in mice and humans. We also explored immune cell changes beyond what our in vitro experiments had predicted, and found several unanticipated observations. […] This effect was also clear if groups treated with the EZH2 inhibitor were analyzed together, and against groups not treated with the EZH2 inhibitor (FIG. 7). […] This effect was also observed if groups treated with the EZH2 inhibitor were analyzed together, and against groups not treated with the EZH2 inhibitor (FIG. 8). […] Growth of CT26 mouse colon carcinoma cells was assessed in the presence of increasing amounts of Inhibitor 4 concentrations. […]

Assay [3] deals with FOXP3. Nature of the assay: FOXP3 expression by flow cytometry during Treg differentiation. Particulars: increasing concentrations, vs DMSO control; FIG. 3A. Type of assay: cell-based, human.
Assay [4] concerns CT26 mouse colon carcinoma cells. Nature of the assay: In vitro growth/sensitivity of CT26 carcinoma cells. Format: cell-based. Particulars: FIG. 9.
Excerpt: as §2
CD8 T cells are known to be major effectors of anti-tumor efficacy in mice and humans. We also explored immune cell changes beyond what our in vitro experiments had predicted, and found several unanticipated observations. First, natural killer (NK) and NKT cells, also major drivers of anti-tumor activity were increased in Inhibitor 1-treated animals, while reduced in the αPD1 group (FIG. 12). This effect was also clear if groups treated with the EZH2 inhibitor were analyzed together, and against groups not treated with the EZH2 inhibitor (FIG. 7). Second, M2 tumor associated macrophages (TAM), known to be immuno-suppressive, reduced in Inhibitor 1-treated animals, while increased in αPD1-treated animals (FIG. 13). This effect was also observed if groups treated with the EZH2 inhibitor were analyzed together, and against groups not treated with the EZH2 inhibitor (FIG. 8). Similar results were also seen with Inhibitor 4. Growth of CT26 mouse colon carcinoma cells was assessed in the presence of increasing amounts of Inhibitor 4 concentrations. […].

The test system of assay [5] is H3K27me3. Nature of the assay: H3K27me3 levels in treated FOXP3+ T-cells. Particulars: FIG. 3B. Format: cell-based, human.
The test system of assay [6] is human Treg cells. Nature of the assay: Luminex cytokine assays of day 4 iTreg culture supernatants. Type of assay: cell-based. The conditions noted are these: day 4 supernatants; FIG. 3C. The text has this: Luminex cytokine assays. Cytokines were quantified from day 4 cell supernatants using Luminex multiplex assays (HTH17MAG-14K-12, Millipore), as per the manufacturer's protocol.
The transcription factor FOXP3 is known to be an essential regulator of Treg cells, and therefore is important to understand if EZH2 plays any role in its expression.

Turning to `CCS(=O)(=O)N1CCC([C@@H](C)n2c(C)c(C(=O)NCc3c(OC)cc(C)[nH]c3=O)c3ccccc32)CC1` [Inhibitor 1], in assay [1] (FIG. 12), the “NKT cells in tumors” value is reported as “increased” and the “natural killer (NK) cells in tumors” value was “increased”. Moreover, the “M2 tumor associated macrophages (TAM) in tumors” value in assay [1] (FIG. 13) is “reduced”. Besides, the “tumor growth inhibition efficacy (CT26 tumor volume)” value in assay [2] was “significantly efficacious”. The “FOXP3 expression (frequencies of FOXP3+ cells)” value in assay [3] is listed as “no impact”. In assay [4], the “CT26 cell sensitivity in vitro” value is given as “substantially no CT26 cell sensitivity”. For the same compound, in assay [5], the “H3K27me3 in the same (FOXP3+) cells” value was “robustly decreased”. For the same compound, in assay [6], the “secretion of IFNγ to the culture medium” value is listed as “dose-dependent increase”, the “secretion of IL-10 to the culture medium” value is listed as “dose-dependent increase” and the “secretion of IL-13 to the culture medium” value is listed as “dose-dependent increase”.
